The text below walks through data of ChEMBL document CHEMBL3421567, “Non-electrophilic modulators of the canonical Keap1/Nrf2 pathway” (Bioorg Med Chem Lett, 2015).

Residues, ends and D or L forms follow the SMILES beside them.

By Kd is commonly meant the equilibrium constant for the complex coming apart. Higher therefore signals weaker binding. The term IC50 denotes the concentration that inhibits the measured activity by half.

Assay type in all cases: protein assay
Assay [1] deals with T1, Keap1/Nrf2 (Homo sapiens, UniProt Q14145+Q16236). Kind of assay: Binding affinity to Keap1/Nrf2 complex (unknown origin) by fluorescence polarization assay. (In general: Fluorescence polarisation rises when a labelled molecule tumbles more slowly, as on binding a larger partner.)
T1 sequence (Q16236 whole entry): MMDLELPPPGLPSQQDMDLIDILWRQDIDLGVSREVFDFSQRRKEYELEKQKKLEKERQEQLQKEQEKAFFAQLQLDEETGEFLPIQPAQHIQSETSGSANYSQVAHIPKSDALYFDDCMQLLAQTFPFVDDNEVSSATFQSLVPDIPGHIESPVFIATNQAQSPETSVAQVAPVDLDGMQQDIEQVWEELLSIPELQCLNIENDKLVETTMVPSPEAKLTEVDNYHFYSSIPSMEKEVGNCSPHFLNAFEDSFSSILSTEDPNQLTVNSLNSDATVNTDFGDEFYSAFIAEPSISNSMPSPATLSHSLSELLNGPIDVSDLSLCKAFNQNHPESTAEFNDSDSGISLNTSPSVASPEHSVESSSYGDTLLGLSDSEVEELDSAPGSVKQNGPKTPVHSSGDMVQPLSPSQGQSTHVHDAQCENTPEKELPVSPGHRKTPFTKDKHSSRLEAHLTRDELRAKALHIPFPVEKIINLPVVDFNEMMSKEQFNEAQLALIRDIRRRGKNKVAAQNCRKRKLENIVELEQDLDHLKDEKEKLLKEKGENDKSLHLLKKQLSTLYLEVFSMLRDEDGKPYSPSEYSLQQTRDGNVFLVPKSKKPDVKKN
T1 sequence (Q14145 whole entry): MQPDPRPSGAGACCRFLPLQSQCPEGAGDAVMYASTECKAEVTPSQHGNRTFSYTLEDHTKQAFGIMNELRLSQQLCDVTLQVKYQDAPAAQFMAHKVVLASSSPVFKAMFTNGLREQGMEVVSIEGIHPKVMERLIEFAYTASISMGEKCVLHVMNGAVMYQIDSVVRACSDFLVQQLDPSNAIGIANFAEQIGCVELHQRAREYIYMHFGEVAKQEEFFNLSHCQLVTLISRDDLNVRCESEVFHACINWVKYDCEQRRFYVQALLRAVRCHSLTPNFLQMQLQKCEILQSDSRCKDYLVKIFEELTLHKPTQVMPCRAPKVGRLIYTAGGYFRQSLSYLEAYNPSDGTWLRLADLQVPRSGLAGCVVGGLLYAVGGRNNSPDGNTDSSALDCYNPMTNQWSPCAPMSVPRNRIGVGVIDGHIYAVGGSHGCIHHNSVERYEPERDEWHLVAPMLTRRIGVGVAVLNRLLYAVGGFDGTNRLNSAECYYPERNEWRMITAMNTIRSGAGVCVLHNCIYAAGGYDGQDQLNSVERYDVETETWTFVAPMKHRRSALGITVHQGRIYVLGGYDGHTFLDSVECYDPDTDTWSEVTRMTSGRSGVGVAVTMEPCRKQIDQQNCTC
The target of assay [2] is T1, Keap1/Nrf2. The experiment in a line: Inhibition of Keap1/Nrf2 complex (unknown origin).
The target of assay [3] is T1, Keap1/Nrf2. Kind of assay: Binding affinity to Keap1/Nrf2 complex (unknown origin) by ITC method.

Turning to `CC[C@H](C)[C@H](NC(=O)[C@@H]1CCCN1C(=O)[C@H](CC(C)C)NC(=O)[C@H](Cc1ccccc1)NC(=O)[C@H](CCC(=O)O)NC(=O)CNC(=O)[C@@H](NC(=O)[C@H](CCC(=O)O)NC(=O)[C@H](CCC(=O)O)NC(=O)[C@H](CC(=O)O)NC(=O)[C@H](CC(C)C)NC(=O)[C@H](CCC(N)=O)NC(=O)[C@@H](N)CC(C)C)[C@@H](C)O)C(=O)N[C@@H](CCC(N)=O)C(=O)O`, at Keap1/Nrf2 [1], the Kd turned out to be 61.9 nM.

At Keap1/Nrf2 [2], `Cc1cccc2c1CCN(C(=O)[C@H]1CCCC[C@H]1C(=O)O)[C@@H]2CN1Cc2ccccc2C1=O` displayed an IC50 of 750 nM.

On Keap1/Nrf2 [3], `CC(C)C[C@H](NC(=O)[C@@H](N)CC(=O)O)C(=O)NCC(=O)O` (H-Asp-Leu-Gly-OH) had a Kd of 1000 nM.

Regarding `C[C@@H](O)[C@H](NC(=O)[C@@H](N)CCC(=O)O)C(=O)NCC(=O)N[C@@H](CCC(=O)O)C(=O)O` (H-ETGE-OH), on Keap1/Nrf2 [3], the affinity, expressed as Kd, was 5 nM.
